Measurements: patent US20110028566A1, “COMPOSITIONS AND PRODUCTS CONTAINING CYCLOALIPHATIC DIOL ANTIMICROBIAL AGENTS AND METHODS OF USING THE COMPOSITIONS AND PRODUCTS” (EASTMAN CHEMICAL COMPANY, priority 2009, published 2011)
Values joined by “and” are separate entries in the source; they are usually repeats but may differ in a detail not shown here. Equal entries are not always repeated.

What was measured:
[1] = system: Candida albicans ATCC 10231; experiment: MIC determination and synergy testing (Kull synergy index), microplate; type: cell-based; set-up: QA/a: unit not given beside the values; details: for QA, MIC of CHDM alone / QA/a: concentration of CHDM alone (QA, MIC): C. albicans; for QA/a: concentration of CHDM alone (QA, MIC): Table 46
Protocol: The test cultures are listed in Table 7 along with the incubation temperatures used for growth and minimum inhibitory concentration (MIC) testing. […] C. albicans was cultured in Sabouraud dextrose broth (SDB) for approximately 44-52 hours for preparation of inoculum. A. niger was cultured on Sabouraud dextrose agar (SDA) for 3-4 days until there was confluent growth and visible spore formation. Spores were harvested from the SDA plates by flooding the surface of the plate with 5-10 mL of phosphate-buffered saline (PBS) and gently spreading the liquid across the surface of the plate with a sterile T-shaped plastic spreader (Copan Diagnostics) until there was a well-mixed suspension of spores. The resulting spore suspension was collected using a serological pipette and stored at 2-8° C. until use.
Inoculum concentration was determined by dilution plating of the cultures or spore suspension. A serial dilution in PBS was made to 10^−8 for the bacterial cultures or 10^−5 for the fungal cultures. Fifty or 100 μL of the final dilution was spread on two Trypticase-soy agar (TSA) plates for bacteria or two SDA plates for fungi. After 24 to 48 hours plates were counted and the concentrations used in each experiment were calculated.
The antimicrobial agents tested for synergy along with the respective diluents and working stock solution concentrations are shown below. For determination of MIC ranges, individual antimicrobial agent stock solutions were added to sterile medium to yield the highest level test concentrations, and then serially diluted in the medium to prepare the range of test concentrations. For synergy testing individual test concentrations were prepared in sterile medium, and then blended to form the desired combinations.
MICs were determined using a high-throughput microplate method. Individual antimicrobial agents were added to TSB (pH 7.3) for bacterial testing or SDB (pH 5.6) for fungal testing at the highest concentration to be tested. A serial dilution series was prepared at a dilution ratio of 1:1.3333 such that a one log range was covered in nine dilutions. Two-hundred microliters of the diluted antimicrobial agents were dispensed into four wells each of a sterile, 96-well, flat-bottom microplate (Nalge Nunc International). Four additional wells of the highest concentration were dispensed to serve as uninoculated high-level controls. Eight additional wells containing only broth medium were also prepared, four to serve as negative controls and four as positive controls. Three wells of each antimicrobial agent dilution were inoculated with one of the test strains in Table 7. The final well of each antimicrobial agent dilution was left uninoculated to serve as a control (and means of compensating) for any absorbance/turbidity due to the test compounds.
Microplates were inoculated using the cultures or spore suspensions prepared as described above. The S. aureus cultures were used undiluted, while the E. coli and P. aeruginosa cultures were used either undiluted or after a 1:2 dilution in sterile TSB. The C. albicans cultures were used either undiluted or following a 2-fold concentration by centrifugation. One of two means of inoculation was used to deliver a final concentration of approximately 10^5 colony-forming units (CFU)/mL of C. albicans, 10^5 spores/mL of A. niger, or 10^6 CFU/mL of bacteria. The primary method used a stainless steel pin replicator (Nalge Nunc International) mounted on a hand-operated bench-top press (Schmidt Technology Corporation) fitted with a custom-built microplate holder to dispense one microliter of each inoculum from a “master” plate containing 50-100 μL of culture into the wells of the test plate. The pin replicator was sterilized before and between inoculations by immersing in ethanol and flaming. The alternative method of inoculation was by directly pipetting 20 μL of a 1:20 dilution of each culture or spore suspension into the appropriate wells of the test plates.

[2] = system: biodiesel-acclimated bioslime; experiment: 15-day biofouling control in B-100 biodiesel:Bushnell-Haas broth, visual turbidity; type: cell-based; set-up: key to Growth (visual turbidity rating): 0 = No Growth; 1 = Slight Growth; 2 = Moderate Growth; 3 = Heavy Growth; details: 15 days, 22° C.; for Enhancement of the preservative (inhibitory) action of Killem biocide (in words): B-100 biodiesel, bioslime or trivalent bacterial-fungal inocula (Tables 54 & 55); for Growth (visual turbidity rating): biocide 0 mg/L, bioslime inoculum 50 uL
Protocol: Antimicrobial efficacy data (Table 54 & Table 55) were obtained for 1,4-CHDM with and without biocide in protection of B-100 biodiesel from microbial growth derived via either biodiesel-acclimated bioslime or trivalent bacterial-fungal inocula after 15-day exposure at 22° C. This testing was via a visual turbidity methodology. Neither micro-liter plates nor automatic plate reader could be used in this experiment due to the inherent biphasic nature of the system. B-100 biodiesel:Bushnell-Haas broth was used, which is a minimal salts medium specially designed for evaluating growth of microorganisms on hydrocarbons. Samples were evaluated visually (i.e., the more the turbidity, the more the growth, the less the turbidity, the less the growth, and no turbidity means no growth).

Q: How did the “QA, MIC of CHDM alone” value ([1]; day 2 of incubation, plate 128B (MP series)) turn out when `OCC1CCC(CO)CC1` (centres unmarked) [1,4-CHDM, 1,4-cyclohexanedimethanol] was run?
A: 3.00 weight percent

Q: And the “QA, MIC of CHDM alone” value ([1]; day 2 of incubation, plates 116B, 240B, 252B (PE series))?
A: 5.85 weight percent and 6.67 weight percent and 3.56 weight percent

Q: And the “QA, MIC of CHDM alone” value ([1]; day 2 of incubation, plates 117B, 226B, 254B (CG series))?
A: 5.63 weight percent and 5.00 weight percent and 3.56 weight percent

Q: What about the “QA, MIC of CHDM alone” value ([1]; day 3 of incubation, plate 128B (MP series)) of the same molecule?
A: 4.00 weight percent

Q: What about the “QA, MIC of CHDM alone” value ([1]; day 3 of incubation, plates 116B, 240B, 252B (PE series)) of the same molecule?
A: 4.75 weight percent and 5.85 weight percent and 6.67 weight percent

Q: What about the “QA, MIC of CHDM alone” value ([1]; day 3 of incubation, plates 117B, 254B (CG series)) of the same molecule?
A: 4.75 weight percent and 6.67 weight percent

Q: And the QA/a ([1]; CHDM alone (QA) or in combination with BA:DHA (a), plate 131B, day 3)?
A: 5.33

Q: What about the QA/a ([1]; CHDM alone (QA) or in combination with BA:DHA (a), plate 131B, day 4) of the same molecule?
A: 5.33

Q: And the QA/a ([1]; CHDM alone (QA) or in combination with BA:DHA (a), plate 239B, day 2)?
A: 5.85

Q: What about the QA/a ([1]; CHDM alone (QA) or in combination with BA:DHA (a), plate 239B, day 3) of the same molecule?
A: 5.85

Q: And the QA/a ([1]; CHDM alone (QA) or in combination with BA:DHA (a), plate 258B, day 2)?
A: 5.00

Q: What about the QA/a ([1]; CHDM alone (QA) or in combination with BA:DHA (a), plate 258B, day 3) of the same molecule?
A: 6.67

Q: And the QA/a ([1]; CHDM alone (QA) or in combination with DMDM hydantoin (a), plate 241B, day 2)?
A: 5.85

Q: And the QA/a ([1]; CHDM alone (QA) or in combination with DMDM hydantoin (a), plate 241B, day 3)?
A: 5.85

Q: And the QA/a ([1]; CHDM alone (QA) or in combination with DMDM hydantoin (a), plate 244B, day 2)?
A: 6.00

Q: What about the QA/a ([1]; CHDM alone (QA) or in combination with DMDM hydantoin (a), plate 244B, day 3) of the same molecule?
A: 8.00

Q: What about the QA/a ([1]; CHDM alone (QA) or in combination with DMDM hydantoin (a), plate 263B, day 2) of the same molecule?
A: 8.00

Q: What about the QA/a ([1]; CHDM alone (QA) or in combination with DMDM hydantoin (a), plate 263B, day 3) of the same molecule?
A: 8.00

Q: What about the QA/a ([1]; CHDM alone (QA) or in combination with DMDM hydantoin (a), plate 264B, day 2) of the same molecule?
A: 6.67

Q: What about the QA/a ([1]; CHDM alone (QA) or in combination with DMDM hydantoin (a), plate 264B, day 3) of the same molecule?
A: 6.67

Q: And the QA/a ([1]; CHDM: MIC alone (QA) or conc. in combination with CP (a), plate 130B, day 2)?
A: 3.00

Q: What about the QA/a ([1]; CHDM: MIC alone (QA) or conc. in combination with CP (a), plate 130B, day 3) of the same molecule?
A: 4.00

Q: And the QA/a ([1]; CHDM: MIC alone (QA) or conc. in combination with CP (a), plate 227B, day 2)?
A: 5.63

Q: And the QA/a ([1]; CHDM: MIC alone (QA) or conc. in combination with CP (a), plate 227B, day 3)?
A: 5.63

Q: What about the QA/a ([1]; CHDM: MIC alone (QA) or conc. in combination with CP (a), plate 256B, day 2) of the same molecule?
A: 6.67

Q: What about the QA/a ([1]; CHDM: MIC alone (QA) or conc. in combination with CP (a), plate 256B, day 3) of the same molecule?
A: 6.67

Q: And the QA/a ([1]; CHDM: MIC alone (QA) or conc. in combination with MIT (a), plate 162B, day 3)?
A: 5.33

Q: And the QA/a ([1]; CHDM: MIC alone (QA) or conc. in combination with MIT (a), plate 200B, day 2)?
A: 6.23

Q: And the QA/a ([1]; CHDM: MIC alone (QA) or conc. in combination with MIT (a), plate 200B, day 3)?
A: 6.23

Q: And the “QA/a: concentration of CHDM alone (QA, MIC)” value ([1]; Day 2)?
A: 4.00 weight percent and 3.38 weight percent

Q: And the “QA/a: concentration of CHDM alone (QA, MIC)” value ([1]; Day 3)?
A: 4.50 weight percent

Q: And the “Enhancement of the preservative (inhibitory) action of Killem biocide (in words)” value ([2]; Killem biocide 200 ppm, 1,4-CHDM 0.2-0.5 wt %)?
A: enhanced the preservative (inhibitory) action of the Killem biocide

Q: And the “Enhancement of the preservative (inhibitory) action of Killem biocide (in words)” value ([2]; biocide 50 ppm or 100 ppm, or 1,4-CHDM 0.1 wt %)?
A: No enhancement

Q: And the “Growth (visual turbidity rating)” value ([2]; 1,4-CHDM 0.1% (v/v))?
A: 3

Q: What about the “Growth (visual turbidity rating)” value ([2]; 1,4-CHDM 0.2% (v/v)) of the same molecule?
A: 3

Q: What about the “Growth (visual turbidity rating)” value ([2]; 1,4-CHDM 0.3% (v/v)) of the same molecule?
A: 3

Q: And the “Growth (visual turbidity rating)” value ([2]; 1,4-CHDM 0.4% (v/v))?
A: 3

Q: And the “Growth (visual turbidity rating)” value ([2]; 1,4-CHDM 0.5% (v/v))?
A: 3
